Paper PMC8079033, “Design, synthesis, anticancer evaluation, and molecular modelling studies of novel tolmetin derivatives as potential VEGFR-2 inhibitors and apoptosis inducers” (Journal of Enzyme Inhibition and Medicinal Chemistry, 2021)

Tests used:
MALME-3M = experiment: NCI 60-cell line one-dose antiproliferative screen (SRB); type: cell-based; conditions: Homo sapiens, read-out: growth inhibition % (GI%)
Summary of the method: (§1)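 A 48 h, 10 µM exposure is scored by SRB protein dye. Percent growth accounts for starting cell density, allowing lethality as well as cytostasis to be detected.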

CCRF-CEM = experiment: as above; type: cell-based; conditions: Homo sapiens, read-out: growth inhibition % (GI%)
Summary of the method: as §1

UACC-257 = experiment: as above; type: cell-based; conditions: Homo sapiens, read-out: growth inhibition % (GI%)
Summary of the method: as §1

HCT-15 = experiment: as above; type: cell-based; conditions: Homo sapiens, read-out: growth inhibition % (GI%)
Summary of the method: as §1

SR = experiment: as above; type: cell-based; conditions: Homo sapiens, read-out: growth inhibition % (GI%)
Summary of the method: as §1

UACC-62 = experiment: as above; type: cell-based; conditions: Homo sapiens, read-out: growth inhibition % (GI%)
Summary of the method: as §1

RPMI-8226 = experiment: as above; type: cell-based; conditions: Homo sapiens, read-out: growth inhibition % (GI%)
Summary of the method: as §1

Colo 205 = experiment: as above; type: cell-based; conditions: Homo sapiens, read-out: growth inhibition % (GI%)
Summary of the method: as §1

T-47D = experiment: as above; type: cell-based; conditions: Homo sapiens, T47D, read-out: growth inhibition % (GI%)
Summary of the method: as §1

SF-268 = experiment: as above; type: cell-based; conditions: Homo sapiens, read-out: growth inhibition % (GI%)
Summary of the method: as §1

LOX IMVI = experiment: as above; type: cell-based; conditions: Homo sapiens, read-out: growth inhibition % (GI%)
Summary of the method: as §1

BT-5 = experiment: as above; type: cell-based; conditions: Homo sapiens, read-out: growth inhibition % (GI%)
Summary of the method: as §1

KM12 = experiment: as above; type: cell-based; conditions: Homo sapiens, read-out: growth inhibition % (GI%)
Summary of the method: as §1

DU-145 = experiment: as above; type: cell-based; conditions: Homo sapiens, read-out: growth inhibition % (GI%)
Summary of the method: as §1

HS 578 T = experiment: as above; type: cell-based; conditions: Homo sapiens, read-out: growth inhibition % (GI%)
Summary of the method: as §1

MOLT-4 = experiment: as above; type: cell-based; conditions: Homo sapiens, read-out: growth inhibition % (GI%)
Summary of the method: as §1

MDA-MB-231/ATCC = experiment: as above; type: cell-based; conditions: Homo sapiens, read-out: growth inhibition % (GI%)
Summary of the method: as §1

IGROV1 = experiment: as above; type: cell-based; conditions: Homo sapiens, IGROV-1, read-out: growth inhibition % (GI%)
Summary of the method: as §1

HT29 = experiment: as above; type: cell-based; conditions: Homo sapiens, HT-29, read-out: growth inhibition % (GI%)
Summary of the method: as §1

HL-60 (TB) = experiment: as above; type: cell-based; conditions: Homo sapiens, read-out: growth inhibition % (GI%)
Summary of the method: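 Values are GI% from a one-dose NCI DTP screen: compound at 10 µM, 48 h at 37 °C in 5% CO2, cell mass by SRB staining at 515 nm.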

OVCAR-3 = experiment: as above; type: cell-based; conditions: Homo sapiens, read-out: growth inhibition % (GI%)
Summary of the method: as §1

TK-10 = experiment: as above; type: cell-based; conditions: Homo sapiens, read-out: growth inhibition % (GI%)
Summary of the method: as §1

HCC-2998 = experiment: as above; type: cell-based; conditions: Homo sapiens, read-out: growth inhibition % (GI%)
Summary of the method: as §1

SK-MEL-28 = experiment: as above; type: cell-based; conditions: Homo sapiens, read-out: growth inhibition % (GI%)
Summary of the method: as §1

SK-OV-3 = experiment: as above; type: cell-based; conditions: Homo sapiens, read-out: growth inhibition % (GI%)
Summary of the method: as §1

SK-MEL-2 = experiment: as above; type: cell-based; conditions: Homo sapiens, read-out: growth inhibition % (GI%)
Summary of the method: as §1

| Structure (SMILES) | melting point | inhibition at 10 µM (MALME-3M) | inhibition at 10 µM (CCRF-CEM) | inhibition at 10 µM (HCT-15) | inhibition at 10 µM (SR) | inhibition at 10 µM (UACC-62) | inhibition at 10 µM (RPMI-8226) | inhibition at 10 µM (T-47D) | inhibition at 10 µM (SF-268) | inhibition at 10 µM (LOX IMVI) | inhibition at 10 µM (BT-5) | inhibition at 10 µM (KM12) | inhibition at 10 µM (DU-145) | inhibition at 10 µM (HS 578 T) | inhibition at 10 µM (MOLT-4) | inhibition at 10 µM (MDA-MB-231/ATCC) | inhibition at 10 µM (IGROV1) | inhibition at 10 µM (HL-60 (TB)) | inhibition at 10 µM (SK-OV-3) | inhibition at 10 µM (SK-MEL-2) | also measured |
| --- | --- | --- | --- | --- | --- | --- | --- | --- | --- | --- | --- | --- | --- | --- | --- | --- | --- | --- | --- | --- | --- |
| Cc1ccc(C(=O)c2ccc(CC(=O)NNC(=O)Nc3ccc(Cl)c(C(F)(F)F)c3)n2C)cc1 [Compound 8c, N-(4-Chloro-3-(trifluoromethyl)phenyl)-2–(2-(1-methyl-5–(4-methylbenzoyl)-1H-pyrrol-2-yl)acetyl)hydrazinecarboxamide] | 171 to 173 °C | < 10% | < 10% | 10.9% | < 10% | 19.7% | 11.3% | 13.8% | 26.3% | 10.5% | 11.4% | < 10% | < 10% | 11.9% | 19.2% | 16.7% | 36.1% | – | – | – | inhibition at 10 µM (UACC-257): 22.9%; inhibition at 10 µM (Colo 205): < 10%; inhibition at 10 µM (HT29): < 10% |
| Cc1ccc(C(=O)c2ccc(CC(=O)NN=Cc3c[nH]c4ccccc34)n2C)cc1 [Compound 5f, N′-((1H-Indol-3-yl)methylene)-2–(1-methyl-5–(4-methylbenzoyl)-1H-pyrrol-2-yl) acetohydrazide] | 168 to 170 °C | 19.3% | 24.6% | 16.8% | 11.2% | 12.2% | 15.9% | 22.1% | 10.5% | 16.5% | < 10% | – | – | < 10% | 16.5% | 12.4% | 15.2% | 27% | – | – | inhibition at 10 µM (OVCAR-3): < 10% |
| Cc1ccc(C(=O)c2ccc(CC(=O)NN=Cc3ccccc3O)n2C)cc1 [Compound 5a, N′-(2-Hydroxybenzylidene)-2–(1-methyl-5–(4-methylbenzoyl)-1H-pyrrol-2-yl)aceto hydrazide] | 222 to 224 °C | < 10% | 45.9% | 56.5% | 43.8% | 12.8% | 18.6% | 24.4% | 29.1% | 42% | 14.9% | 19.6% | 10.4% | – | 26% | 17.4% | 19.1% | 13% | < 10% | 10.4% | inhibition at 10 µM (UACC-257): < 10%; inhibition at 10 µM (TK-10): 14.9%; inhibition at 10 µM (HCC-2998): < 10%; inhibition at 10 µM (OVCAR-3): 19.7%; inhibition at 10 µM (SK-MEL-28): 15.7% |
| Cc1ccc(C(=O)c2ccc(CC(=O)NN3C(=O)CCC3=O)n2C)cc1 [Compound 7a, N-(2,5-Dioxopyrrolidin-1-yl)-2–(1-methyl-5–(4-methylbenzoyl)-1H-pyrrol-2-yl) acetamide] | > 300 °C | – | < 10% | < 10% | – | 12.4% | 20.2% | 42.8% | 11.9% | 12.8% | < 10% | – | – | – | < 10% | 13.7% | 22.3% | < 10% | 14% | < 10% | inhibition at 10 µM (HT29): < 10% |
| Cc1ccc(C(=O)c2ccc(CC(=O)NN3C(=O)C=CC3=O)n2C)cc1 [Compound 7b, N-(2,5-Dioxo-2,5-dihydro-1H-pyrrol-1-yl)-2–(1-methyl-5–(4-methylbenzoyl)-1H-pyrrol-2-yl)acetamide] | 193 to 195 °C | – | < 10% | < 10% | – | < 10% | < 10% | 25.5% | 12.3% | 11.1% | < 10% | < 10% | < 10% | < 10% | 14% | 11.6% | 22.2% | 10.6% | < 10% | < 10% | – |
